Read-outs that look alike come from different tables or passages of the source.
Experiments:
tubulin [1] = target: T1, tubulin (Bos taurus, UniProt Q6B856); parameters: method as in Panda et al., Proc Natl Acad Sci USA 95, 9313 (1998); conditions: exact binding site on tubulin unknown; ref Panda et al., Proc Natl Acad Sci USA 95, 9313 (1998); cited from earlier work
[2] = parameters: method as in Panda et al., Proc Natl Acad Sci USA 95, 9313 (1998); conditions: ref Panda et al., Proc Natl Acad Sci USA 95, 9313 (1998); cited from earlier work
mouse xenograft models = tested on: mouse xenograft models; parameters: method as in Xu et al. 2011; Rothmeier et al. 2010; Paterson et al. 2003; conditions: ref Xu et al. 2011, Rothmeier et al. 2010, Paterson et al. 2003; cited from earlier work
[3] = target: maytansine site of tubulin (Bos taurus, UniProt Q6B856); assay type: binding; conditions: for Kd: 25 °C, mean ± SEM, n = 3, read-out: Kd from FcMaytansine displacement
Method: Vinblastine and colchicine were used as negative controls. […] The mixture was then incubated with an unlabeled competitor at increasing concentrations prior to anisotropy measurements.
Fluorescence anisotropy competition experiments and analyses were performed as previously described[34] with minor modifications. Samples containing 10 nM FcMaytansine and 4 nM tubulin in assay buffer were titrated with increasing amounts of a competitor at 25 °C in black Greiner 384-well, flat-bottom microplates and in a final volume of 50 µL. Fluorescence anisotropy measurements were carried out as described above.
The system was solved using EQUIGRA5[34] using the binding constant of FcMaytansine and a stoichiometry of 1:1 for the tubulin–FcMaytansine complex (EQUIGRA5 can be obtained upon request from Fernando Díaz, fer@cib.csic.es).

human cancer cell lines = tested on: human cancer cell lines; parameters: method as in Xu et al. 2011; Rothmeier et al. 2010; Paterson et al. 2003; conditions: large panel of human cancer cell lines; ref Xu et al. 2011; Rothmeier et al. 2010; Paterson et al. 2003; cited from earlier work
tubulin [4] = target: T1, tubulin; assay: Fluorescence anisotropy titration of FcMaytansine with tubulin (direct binding); conditions: 25 °C
Method: The binding constant of the fluorescent FcMaytansine probe to tubulin was determined by fluorescence anisotropy titration at 25 °C in black Greiner 384-well, flat-bottom microplates and in a final volume of 50 µL. 10 nM FcMaytansine in assay buffer (15 mM PIPES-KOH, pH 6.8, supplemented with 0.3 mM MgCl2 and 0.2 mM EDTA) was titrated with increasing amounts of tubulin up to 400 nM. The anisotropy and fluorescence values of the free (r = 0.016 ± 0.001, fluorescence = 1 (arbitrary units)) and bound (r = 0.245 ± 0.005, fluorescence = 3.10 ± 0.05 (arbitrary units)) states were determined in the absence and presence of 400 nM tubulin, respectively. The anisotropy was measured using a PHERAstar microplate reader (BMG Labtech) with the fluorescence polarization module. […] The read height and the gain were adjusted automatically. […]
In order to calculate the binding constant of FcMaytansine and one of a non-fluorescent ligand from a competition experiment, the fractional saturation, νb, of FcMaytansine has to be determined. Binding of FcMaytansine to tubulin was measured through changes in its anisotropy. […]
In the simplest case of a fluorescent probe with no quantum yield difference between the bound and the free state, the fraction of bound (νb) and free (νf) fluorophore coincides with the fluorescence fractions for the bound and free fluorophore (Fb and Ff, respectively). […]

cells = tested on: cells; parameters: method as in PMID 25826705; conditions: in vitro cytotoxicity, compound added exogenously; cited from earlier work
tubulin [5] = target: T1, tubulin; parameters: method as in PMID 20937594; conditions: reported previously; buffer with 100 mM PIPES; read-out: Kd for the tubulin-maytansine interaction; cited from earlier work
[6] = 10 nM FcMaytansine, 4 nM tubulin
[7] = 10 nM FcMaytansine, 4 nM tubulin, increasing competitor concentrations

T1 sequence (Q6B856 whole entry): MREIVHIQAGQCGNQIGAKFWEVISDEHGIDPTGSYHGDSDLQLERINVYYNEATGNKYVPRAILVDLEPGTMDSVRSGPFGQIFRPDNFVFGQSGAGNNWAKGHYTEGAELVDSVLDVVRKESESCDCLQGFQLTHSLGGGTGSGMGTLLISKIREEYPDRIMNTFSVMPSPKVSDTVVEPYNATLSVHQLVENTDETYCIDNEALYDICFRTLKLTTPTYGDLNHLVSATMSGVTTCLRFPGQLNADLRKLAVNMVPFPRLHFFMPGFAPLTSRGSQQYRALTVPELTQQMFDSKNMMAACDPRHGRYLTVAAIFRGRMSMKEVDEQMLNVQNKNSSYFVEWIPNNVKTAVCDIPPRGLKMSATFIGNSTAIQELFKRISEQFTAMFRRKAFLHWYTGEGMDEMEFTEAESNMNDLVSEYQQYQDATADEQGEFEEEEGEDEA
T1 sequence (P81947 whole entry partner): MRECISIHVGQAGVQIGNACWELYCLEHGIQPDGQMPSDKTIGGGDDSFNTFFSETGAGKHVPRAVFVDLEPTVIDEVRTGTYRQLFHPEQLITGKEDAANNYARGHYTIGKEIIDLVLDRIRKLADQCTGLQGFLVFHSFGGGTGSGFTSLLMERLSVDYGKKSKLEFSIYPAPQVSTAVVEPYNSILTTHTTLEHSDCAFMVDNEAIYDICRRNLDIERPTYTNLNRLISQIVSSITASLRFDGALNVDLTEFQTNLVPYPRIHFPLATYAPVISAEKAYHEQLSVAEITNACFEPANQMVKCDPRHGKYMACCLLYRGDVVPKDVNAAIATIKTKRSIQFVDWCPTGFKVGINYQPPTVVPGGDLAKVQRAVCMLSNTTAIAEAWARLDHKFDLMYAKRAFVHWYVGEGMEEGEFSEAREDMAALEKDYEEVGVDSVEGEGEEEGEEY
Sequence of maytansine site of tubulin (P81947 whole entry): as the sequence (P81947 whole entry partner) above
Sequence of maytansine site of tubulin (Q6B856 whole entry): as the sequence (Q6B856 whole entry) above

Question: For `COc1ccc(C[C@H]2NC(=O)/C=C/C[C@@H]([C@H](C)[C@H]3O[C@@H]3c3ccccc3)OC(=O)[C@H](CC(C)C)OC(=O)C(C)(C)CNC2=O)cc1Cl` [Cryptophycin 52], which Kd (tubulin [1]) is on record?
Answer: 47 nM

Question: And the IC50 [2]?
Answer: 0.02 nM

Question: For spongistatin-1, which “in vivo antitumour activity” value (mouse xenograft models) is on record?
Answer: antitumour activity

Question: And the Kd [3, 6]?
Answer: 9.5 ± 1.9 nM

Question: What about the antiproliferative activity (human cancer cell lines) of the same molecule?
Answer: single digit picomolar

Question: With ansamitocin P3 as the molecule, how does the “displacement of FcMaytansine from tubulin” value [3, 7] read?
Answer: fully displaced

Question: What does the source list for `COc1cc2cc(c1Cl)N(C)C(=O)CC(OC(=O)CCCCc1cn(CCCNC(=O)c3ccc(C(=O)O)c(-c4c5ccc(=O)cc-5oc5cc(O)ccc45)c3)nn1)C1(C)OC1C(C)C1CC(O)(NC(=O)O1)C(OC)C=CC=C(C)C2` (centres unmarked) [FcMaytansine]?
Answer: Kd (tubulin [4]; 10 nM FcMaytansine, tubulin 0 to 400 nM, single binding site model, mean ± SEM, n = 5, read-out: dissociation constant, Kd, for the tubulin-FcMaytansine interaction): 6.8 ± 0.8 nM; binding constant of FcMaytansine to tubulin (tubulin [4]; stoichiometry 1:1, association constant): 1.6 ± 0.3 × 10^8 M^−1

Question: What does the source list for `C/C=C\C[C@@H](C/C=C\NC(=O)[C@@H](NC(=O)\C=C/C=C\C(C)=C\[C@H](C)[C@@H]1CC=C(OC)C(=O)O1)C(C)(C)C)OC(N)=O` [PM060184]?
Answer: Kd [3, 6]: 111 ± 30 nM; displacement of FcMaytansine from tubulin [3, 7]: fully displaced

Question: For `C/C=C/[C@H](O)C(C)(C(=O)OC)[C@@H]1C\C=C/C=C/C=C/c2nc(co2)C(=O)O[C@H](C(C)(C(=O)OC)[C@@H](O)/C=C/C)C\C=C/C=C/C=C/c2nc(co2)C(=O)O1` (some centres unmarked) [disorazole Z], which “binding affinity value relative to maytansine and spongistatin” value ([3]; times higher Kd than maytansine and spongistatin, rebuttal letter) is on record?
Answer: ~ 100 times

Question: With `CC[C@]1(O)C[C@@H]2CN(CCc3c([nH]c4ccccc34)[C@@](C(=O)OC)(c3cc4c(cc3OC)N(C)[C@H]3[C@@](O)(C(=O)OC)[C@H](OC(C)=O)[C@]5(CC)C=CCN6CC[C@]43[C@@H]65)C2)C1` [vinblastine] as the molecule, how does the “displacement of FcMaytansine from tubulin” value [3] read?
Answer: not

Question: Which “fold less potent in cellular assays than S-Me DM1” value (cells) does the source give for `COc1cc2cc(c1Cl)N(C)C(=O)CC(OC(=O)C(C)N(C)C(=O)CCSC1CC(=O)N(CC3CCC(C(=O)NCCCCC(N)C(=O)O)CC3)C1=O)C1(C)OC1C(C)C1CC(O)(NC(=O)O1)C(OC)C=CC=C(C)C2` (centres unmarked) [M9] here?
Answer: ~ 450 fold

Question: For `COc1cc2cc(c1Cl)N(C)C(=O)C[C@H](OC(=O)[C@H](C)N(C)C(C)=O)[C@]1(C)O[C@H]1[C@H](C)[C@@H]1C[C@@](O)(NC(=O)O1)[C@H](OC)/C=C/C=C(\C)C2` [maytansine], which Kd (tubulin [5]) is on record?
Answer: ~900 nM
